The nature of the experiment: determined in L-pipecolate oxidase from Rehsus monkey.

In BindingDB's records for doi:10.1021/jm960331f (Oregon State University, 1996) one finds Ki data, which are given here for one compound.

What is called Ki is a measure of affinity in units of concentration, obtained from inhibition or displacement. `O=C(O)[C@@H]1CCCCN1` [(S)-pipecolate] returned a Ki of 130 µM.
